SMILES strings stand for the structures.

In general, IC50 refers to the concentration needed to halve the response being measured.

The subject of the assay is IFNα-induced pSTAT5 (pY694) in CD3 positive cells of human whole blood. Nature of the assay: IFNα-Induced STAT Phosphorylation in Human Whole Blood. The format is cell-based. The following applies: Homo sapiens, 1 h compound incubation, 1000 U/mL recombinant human IFNα A/D for 15 min, pSTAT5 in CD3 positive population, read-out: Human WB IFNα-Induced Stat Phosph. (IC50). In short, it runs like this: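 Read-out is median fluorescence intensity of pSTAT5 (pY694) in the CD3-positive gate, by flow cytometry after fix/lyse and permeabilization. Before that, whole human blood anticoagulated with EDTA or ACD-A received compound for an hour and 1000 U/mL IFNα A/D for 15 min.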
`[2H]C([2H])([2H])NC(=O)c1nnc(NC(=O)C2CC2)cc1Nc1cccc(-c2cc(C(=O)N3CCCCC3)n(C)n2)c1OC` [Example 479]: the IC50 was 110 nM.
The value for `[2H]C([2H])([2H])NC(=O)c1nnc(NC(=O)C2CC2)cc1Nc1cccc(-c2nc(C(C)(C)O)no2)c1OC` [Example 186] was 790 nM; that for `[2H]C([2H])([2H])NC(=O)c1nnc(NC(=O)C2CC2)cc1Nc1cccc(-c2cc(C(C)(C)O)n(C)n2)c1OC` [Example 487] was 200 nM.
For `COc1c(Nc2cc(NC(=O)C3CC3)ncc2C#N)cccc1-c1nc(CN2CCN(S(C)(=O)=O)CC2)no1` [Example 578] the value was 4340 nM.
The value for `[2H]C([2H])([2H])NC(=O)c1nnc(NC(=O)C2CC2)cc1Nc1cccc(-c2ncc(C(=O)NC(C)(C)C)s2)c1OC` [Example 309] was > 10000 nM; that for `[2H]C([2H])([2H])NC(=O)c1nnc(NC(=O)C2CC2)cc1Nc1cccc(-c2noc(CCC(=O)NCCC3CCCN3C)n2)c1OC` (centres unmarked) [Example 26] was 3900 nM; that for `[2H]C([2H])([2H])NC(=O)c1nnc(NC(=O)C2CC2)cc1Nc1cccc(-c2cnn(CCNC(C)=O)n2)c1OC` [Example 432] was 300 nM.
As to `[2H]C([2H])([2H])NC(=O)c1cnc(NC(=O)CC)cc1Nc1cccc(-c2noc(COCC)n2)c1OC` [Example 87], the half-inhibitory concentration (IC50) turned out to be 460 nM.
For `[2H]C([2H])([2H])NC(=O)c1nnc(NC(=O)C2CC2)cc1Nc1cccc(-c2nc(CCOC(C)(C)C)no2)c1OC` [Example 226] the value was 1160 nM.
Turning to `[2H]C([2H])([2H])NC(=O)c1nnc(NC(=O)C2CC2)cc1Nc1cccc(-c2cc(C(=O)N3CCC(CCN4CCCC4)CC3)n(C)n2)c1OC` [Example 541], the IC50 worked out at 1390 nM.
The value for `[2H]C([2H])([2H])NC(=O)c1nnc(Nc2cc(C)n(C)n2)cc1Nc1cccc(-c2ncc(C(=O)N3CCS(=O)(=O)CC3)s2)c1OC` [Example 382] was 100 nM; that for `COc1c(Nc2cc(NC(=O)C3CC3)nnc2C(N)=O)cccc1-c1noc(CN(C)S(=O)(=O)C(C)C)n1` [Example 58] was 11 nM; that for `[2H]C([2H])([2H])NC(=O)c1nnc(NC(=O)C2CC2)cc1Nc1cccc(-c2ncc(C(=O)NCCC(N)=O)s2)c1OC` [Example 311] was 200 nM.
The value for `[2H]C([2H])([2H])NC(=O)c1nnc(NC(=O)C2CC2)cc1Nc1cccc(-c2nc([C@@H](NC(=O)OC(C)(C)C)[C@@H](C)OC(C)(C)C)no2)c1OC` [Example 185] was > 10000 nM; that for `COc1c(Nc2cc(NC(=O)C3CC3)nnc2C(N)=O)cccc1-c1ncc(CN2CCOCC2)s1` [Example 401] was 180 nM; that for `[2H]C([2H])([2H])NC(=O)c1nnc(NC(=O)C2CC2)cc1Nc1cccc(-c2nc(CNC(=O)CN(C)C(=O)OC(C)(C)C)no2)c1OC` [Example 153] was > 10000 nM.
The value for `[2H]C([2H])([2H])NC(=O)c1nnc(NC(=O)C2CC2)cc1Nc1cccc(-c2nc(C)c(C(=O)N3CCNC(=O)C3)s2)c1OC` [Example 363] was 240 nM.
Consider `[2H]C([2H])([2H])NC(=O)c1nnc(NC(=O)C2CC2)cc1Nc1cccc(-c2ncc(COCC)s2)c1OC` [Example 394], for which the IC50 was 420 nM.
The value for `[2H]C([2H])([2H])NC(=O)c1nnc(NC(=O)C2CC2)cc1Nc1cccc(-c2nc(C)c(C(=O)N3CCN(C(C)C)CC3)s2)c1OC` [Example 369] was 50 nM.
The value for `[2H]C([2H])([2H])NC(=O)c1nnc(NC(=O)C2CC2)cc1Nc1cccc(-c2noc(CCC(=O)N3CCOCC3)n2)c1OC` [Example 25] was 430 nM; that for `COc1c(Nc2cc(NC(=O)C3CC3)nnc2C(N)=O)cccc1-c1ncc(C(=O)N(C)C)o1` [Example 413] was 170 nM.
The value for `[2H]C([2H])([2H])NC(=O)c1nnc(NC(=O)C2CC2)cc1Nc1cccc(-c2noc(CN)n2)c1OC` [Example 6, 4-((3-(5-(aminomethyl)-1,2,4-oxadiazol-3-yl)-2-methoxyphenyl)amino)-6-(cyclopropanecarboxamido)-N-trideuteromethylpyridazine-3-carboxamide] was 110 nM.
In the case of `[2H]C([2H])([2H])NC(=O)c1nnc(NC(=O)C2CC2)cc1Nc1cccc(-c2ncc(C(=O)NCCN3CCCC3)s2)c1OC` [Example 301], the IC50 is 30 nM.
`[2H]C([2H])([2H])NC(=O)c1nnc(NC(=O)C2CC2)cc1Nc1cccc(-c2noc(CN3CCOC3=O)n2)c1OC` [Example 77]: the IC50 amounted to 40 nM.
On to `CCS(=O)(=O)NCc1nc(-c2cccc(Nc3cc(NC(=O)C4CC4)nnc3C(N)=O)c2OC)no1` [Example 48], for which the IC50 worked out at 25 nM.
For `[2H]C([2H])([2H])NC(=O)c1nnc(NC(=O)C2CC2)cc1Nc1cccc(-c2ncc(CC(=O)N3CCOCC3)s2)c1OC` [Example 253] the value was 300 nM; for `[2H]C([2H])([2H])NC(=O)c1nnc(NC(=O)C2CC2)cc1Nc1cccc(-c2cc(C(=O)N3CCC(OC)C3)n(C)n2)c1OC` (centres unmarked) [Example 522], 190 nM; for `[2H]C([2H])([2H])NC(=O)c1nnc(Nc2ccc(OC)nn2)cc1Nc1cccc(-c2ncc(CNS(C)(=O)=O)s2)c1OC` [Example 390], 240 nM.
The value for `[2H]C([2H])([2H])NC(=O)c1nnc(NC(=O)C2CC2)cc1Nc1cccc(-c2noc(CN3CCOCC3)n2)c1OC` [Example 7] was 24 nM; that for `[2H]C([2H])([2H])NC(=O)c1nnc(NC(=O)C2CC2)cc1Nc1cccc(-c2noc(C(=O)N(C)C)n2)c1OC` [Example 17] was 490 nM.
For `[2H]C([2H])([2H])NC(=O)c1nnc(Nc2ccc(C)nn2)cc1Nc1cccc(-c2ncc(C(C)O)s2)c1OC` (centres unmarked) [Example 392] the value was 23 nM; for `[2H]C([2H])([2H])NC(=O)c1nnc(NC(=O)C2CC2)cc1Nc1cccc(-c2ncc(C(=O)N3CCOCC3)s2)c1OC` [Example 268], 100 nM.
Turning to `[2H]C([2H])([2H])NC(=O)c1cnc(Nc2cc(C)ccn2)cc1Nc1cccc(-c2noc(COC)n2)c1OC` [Example 99], the concentration for half-maximal inhibition (IC50) was found to be 40 nM.
The value for `[2H]C([2H])([2H])NC(=O)c1cnc(NC(=O)C2CC2)cc1Nc1cc(F)cc(-c2cc(C(=O)N(C)C)n(C)n2)c1OC` [Example 456] was 60 nM; that for `COc1c(Nc2cc(NC(=O)C3CC3)ncc2C(N)=O)cccc1-c1nc(CN2CCN(S(C)(=O)=O)CC2)no1` [Example 577] was 19 nM.
For `[2H]C([2H])([2H])NC(=O)c1nnc(Nc2ccc(OC)nn2)cc1Nc1cccc(-c2ncc(CNC(=O)OC)s2)c1OC` [Example 391] the value was 820 nM.
For `[2H]C([2H])([2H])NC(=O)c1nnc(NC(=O)C2CC2)cc1Nc1cccc(-c2cc(C(=O)N3CCC(N4CCN(CCO)CC4)CC3)n(C)n2)c1OC` [Example 524] the value was 3400 nM; for `COc1c(Nc2cc(NC(=O)C3CC3)nnc2C(N)=O)cccc1-c1noc(CC(=O)N2CCOCC2)n1` [Example 36], 30 nM; for `[2H]C([2H])([2H])NC(=O)c1nnc(NC(=O)C2CC2)cc1Nc1cc(F)cc(-c2cc(C(=O)N3CCc4ccccc4C3)n(C)n2)c1OC` [Example 512], 2560 nM.
`[2H]C([2H])([2H])NC(=O)c1nnc(NC(=O)C2CC2)cc1Nc1cccc(-c2nc(CN3CCNCC3)no2)c1OC` [Example 126]: the IC50 was found to be 630 nM.
The value for `[2H]C([2H])([2H])NC(=O)c1cnc(NC(=O)C2CC2)cc1Nc1cccc(-c2nc(C(C)N3CCN(C(C)=O)CC3)no2)c1OC` (centres unmarked) [Example 222] was 1480 nM; that for `[2H]C([2H])([2H])NC(=O)c1nnc(Nc2ccc(OC)nn2)cc1Nc1cccc(-c2ncc(CN)s2)c1OC` [Example 389] was 570 nM.
For `[2H]C([2H])([2H])NC(=O)c1nnc(NC(=O)C2CC2)cc1Nc1cccc(-c2nc(C)c(C(=O)NCC)s2)c1OC` [Example 360], the IC50 was 270 nM.
The value for `[2H]C([2H])([2H])NC(=O)c1nnc(NC(=O)C2CC2)cc1Nc1cccc(-c2nc(CN(CCOC)CCOC)no2)c1OC` [Example 175] was 660 nM; that for `[2H]C([2H])([2H])NC(=O)c1nnc(NC(=O)C2CC2)cc1Nc1cccc(-c2nc(C3(NC(=O)CC#N)CC3)no2)c1OC` [Example 151] was 1550 nM; that for `CCN(CC)C1CCC(NC(=O)c2cnc(-c3cccc(Nc4cc(NC(=O)C5CC5)nnc4C(N)=O)c3OC)s2)CC1` (centres unmarked) [Example 397] was 40 nM.
For the compound `COc1c(Nc2cc(NC(=O)C3CC3)nnc2C(N)=O)cccc1-c1ncc(C(=O)NC(C)C)s1` [Example 404], the IC50 was found to be 110 nM.
With `[2H]C([2H])([2H])NC(=O)c1nnc(Nc2ccc(OC)nn2)cc1Nc1cccc(-c2ncc(CNC(=O)OC(C)(C)C)s2)c1OC` [Example 388], the IC50 was > 10000 nM.
The value for `[2H]C([2H])([2H])NC(=O)c1nnc(NC(=O)C2CC2)cc1Nc1cccc(-c2nc(CNC(=O)CN3CCOCC3)no2)c1OC` [Example 159] was 1080 nM; that for `[2H]C([2H])([2H])NC(=O)c1nnc(NC(=O)C2CC2)cc1Nc1cccc(-c2nc(CN(C)C(=O)CN(C)C)no2)c1OC` [Example 172] was 1440 nM; that for `[2H]C([2H])([2H])c1c(NC(=O)C2CC2)nnc(C(N)=O)c1Nc1cccc(-c2nc(CN3CCN(C(C)=O)CC3)no2)c1OC` [Example 120, 4-((3-(3-((4-acetylpiperazin-1-yl)methyl)-1,2,4-oxadiazol-5-yl)-2-methoxyphenyl)amino)-6-(cyclopropanecarboxamido)-trideuteromethylpyridazine-3-carboxamide] was 150 nM.
As to `[2H]C([2H])([2H])NC(=O)c1nnc(NC(=O)C2CC2)cc1Nc1cccc(-c2cnn(CCNC(=O)COC)c2)c1OC` [Example 562], the IC50 came out at 650 nM.
`[2H]C([2H])([2H])NC(=O)c1nnc(NC(=O)C2CC2)cc1Nc1cccc(-c2cnn(CCNC(=O)CO)n2)c1OC` [Example 447]: the IC50 was found to be 160 nM.

For the origin of these results see patent US12240840B2, “Amide-substituted heterocyclic compounds for the treatment of conditions related to the modulation of IL-12, IL-23 and/or IFN-alpha” (BRISTOL-MYERS SQUIBB COMPANY, priority 2018, dated 2025).
